Measured values taken from the OPERA property sets (Mansouri et al. 2018).

Compound	logP	logD (pH 7.4)
C=C1C(=O)OC2CC3=CC(CC4(C)OC4C(O)C12)OC3=O (centres undefined)	-0.64	–
CCC(CC)COC(N)=O	1.98	–
CCC(=O)OCC1OC(n2cc(I)c(=O)[nH]c2=O)CC1O (centres undefined)	0.68	–
CC(=O)OCC1=C(C(=O)OCOC(=O)C(C)(C)C)N2C(=O)C(NC(=O)CSc3ccncc3)C2SC1 (centres undefined)	1.63	–
O=C1c2ccccc2C(=O)C1c1cccc(Cl)c1	3.61	–
CN[C@@H](C)[C@H](O)c1ccccc1.Cl	-2.45	–
CC(C)Oc1ccc(OCC(OC(=O)n2ccnc2)C(C)(C)C)cc1 (centres undefined)	4.08	–
CCCCCO	1.51	–
NS(=O)(=O)c1cc2c(cc1F)N=CNS2(=O)=O	-0.29	–
Nc1cccc(S(=O)(=O)[O-])c1.[Na+]	-3.4	–
CCOC(=O)OCn1c(=O)[nH]cc(F)c1=O	0.15	–
CC(=O)NC1=NC(=O)C(=Cc2ccc([N+](=O)[O-])o2)S1	1.03	–
CC(=O)Nc1ccc2c(c1)S(=O)(=O)c1ccc(C)cc1C2=O	2.76	–
CCCCCCCC=CCCCCCCC(=O)O	6.58	–
NC(=O)NCCC[C@H](N)C(=O)O	-3.19	–
CC(C(=O)CCN(C)C)N1C(=O)C2CC=CCC2C1=O (centres undefined)	0.77	–
CN(Cc1ccccc1)C(=O)C(Cc1ccccc1)NC(=O)C(Cc1cn(C(=O)OCc2ccccc2)c2ccccc12)NC(=O)CC1NC(=O)C2C3CCC(CC3)N2C1=O (centres undefined)	5.66	–
CCCCC(=O)OC[C@H]1O[C@@H](n2cc(I)c(=O)[nH]c2=O)C[C@@H]1O	1.44	–
Cc1ccc(C(N)=S)cc1	2.01	–
CSc1nnc(-c2cc(Cl)cc(Cl)c2)c(=O)n1N	3.02	–
CC(C)c1cccc(C2C(=O)c3ccccc3C2=O)c1	4.43	–
CC(=O)CC(c1ccc([N+](=O)[O-])cc1)c1c(O)c2ccccc2oc1=O (centres undefined)	1.98	–
COc1ccc(OCC(OC(=O)n2ccnc2)C(C)(C)C)cc1 (centres undefined)	3.46	–
CC(C)(C)C(=O)OCC1OC(n2cc(I)c(=O)[nH]c2=O)CC1O (centres undefined)	1.34	–

Compound	logP	logD (pH 7.4)
O=C(O)Cc1ccc(C(=O)O)cc1	1.24	–
CCN(C)C(=O)CCn1ccc(=O)c(O)c1C	-0.69	–
CCCCCCCO	2.62	–
COc1ncnc(NS(=O)(=O)c2ccc(N)cc2)c1OC	0.7	–
CCOc1ccc(OCC(OC(=O)n2ccnc2)C(C)(C)C)cc1 (centres undefined)	3.86	–
Cn1c(=O)c2[nH]c(Cl)nc2n(C)c1=O	–	-0.85
COC(=O)NC1=NCC(c2ccc(Cl)cc2)N1C (centres undefined)	2.17	–
CSc1nnc(C2CCOCC2)c(=O)n1N	1.07	–
CCCCCCCC(=O)n1cc(CC(NC(=O)CC2NC(=O)C3C4CCC(CC4)N3C2=O)C(=O)NC(Cc2ccccc2)C(=O)N(C)Cc2ccccc2)c2ccccc21 (centres undefined)	7.29	–
CCCC(=O)N1CCCC1=O	1.18	–
CCCCCn1ccc(=O)c(O)c1C	1.24	–
CC(O)Cn1cnc2c1c(=O)n(C)c(=O)n2C (centres undefined)	-0.77	–
CCCCC(=O)OC1C(CO)OC(n2cnc3c(OC)ncnc32)C1OC(=O)CCCC (centres undefined)	3.83	–
CCC(CC)(C(=O)NC(N)=O)C(=O)OC(C)C	1.99	–
NS(=O)(=O)c1cc2c(cc1Cl)NC(c1ccccc1)=NS2(=O)=O	1.4	–
Cc1ccc(CC#N)cc1	1.67	–
CNC(=S)NCC#CCC(NC(=O)C(Cc1ccc2ccccc2c1)Cc1cccc2ccccc12)C(=O)NC(CC1CCCCC1)C(O)CC(=O)NCCN1CCOCC1 (centres undefined)	5.46	–
CCCC(=O)n1c(=O)[nH]cc(F)c1=O	0.67	–
CC(C)(C)C(COc1ccc([N+](=O)[O-])cc1)OC(=O)n1ccnc1 (centres undefined)	3.35	–
CCCCC(=O)OCC1OC(n2cc(F)c(=O)[nH]c2=O)CC1OC(=O)CCCC (centres undefined)	2.72	–
Cc1ccccc1C=O	2.26	–
CCCOc1ccc(OCC(OC(=S)n2ccnc2)C(C)(C)C)cc1 (centres undefined)	5.03	–
CC(C)Cc1ccc(CC(=O)O)cc1	3.35	–
CC(=O)Nc1ccn(C2OC(CO)C(O)C2O)c(=O)n1 (centres undefined)	-1.35	–

Compound	logP	logD (pH 7.4)
CCn1cc(C(=O)O)c(=O)c2cc(F)c(N3CCNCC3)nc21	-0.2	–
CCCC(=NOCC)C1C(=O)CC(C)(C2CC2)OC1=O (centres undefined)	3.28	–
NS(=O)(=O)c1cc2c(cc1C(F)(F)C(F)(F)F)N=CNS2(=O)=O	1.05	–
CC(C)COC(=O)N(C)C	2	–
CC(C)c1ccc(C2C(=O)c3ccccc3C2=O)cc1	4.43	–
CCOC(=O)NC1=NCC(c2ccc(F)cc2)N1C (centres undefined)	1.9	–
NS(=O)(=O)c1cc2c(cc1Cl)N=C(Cc1ccccc1)NS2(=O)=O	1.7	–
O=C(O)CCCC(=O)c1ccccc1	1.49	–
NC(=S)c1ccc(Cl)cc1	2.4	–
O=C(O)Cc1cc(O)ccc1O	0.86	–
CC1CC2CC=CCC2(N)c2ccccc21 (centres undefined)	3.4	–
CCOC(=O)NC1=NCC(c2cccc(F)c2)N1C (centres undefined)	1.84	–
COC(=O)C1=C(C)NC(C)=C(C(=O)OC(C)C)C1c1cccc2nonc12 (centres undefined)	4.28	–
CNC12CCCCC1CSc1ccccc12 (centres undefined)	3.88	–
Cc1ccccc1C(=O)C(C)CN1CCCCC1 (centres undefined)	3.69	–
O=C(CCN1CCCCC1)CN1C(=O)CC(c2ccc(Cl)cc2)C1=O (centres undefined)	2.23	–
Cc1ccc(Nc2c([N+](=O)[O-])c(C)nn2-c2ccccc2)cc1	3.43	–
CCOC(=O)c1ccc(OCC(OC(=O)n2ccnc2)C(C)(C)C)cc1 (centres undefined)	4.12	–
CNC(=O)N(C)c1nnc(C(F)(F)F)s1	1.85	–
Cc1c(C(C)C)c(=O)n(-c2ccccc2)n1C	1.94	–
CC(=O)N(C)C1=NC(=O)C(=Cc2ccc([N+](=O)[O-])o2)S1	1.05	–
COC(=O)NC1=NCC(c2ccccc2)N1C (centres undefined)	1.57	–
Cc1cccc(C)c1C(=O)CCN1CCCCC1	3.53	–
CCN(CC)c1cccc(S(=O)(=O)[O-])c1.[Na+]	-1.6	–

Compound	logP	logD (pH 7.4)
CC(=O)C1CCC2C3CC(C)C4=CC(=O)CCC4(C)C3C(=O)CC12C (centres undefined)	2.75	–
CN(C)C(=O)n1cc(F)c(=O)[nH]c1=O	-0.37	–
Clc1ccc(-c2c(Cl)ccc(Cl)c2Cl)cc1Cl	6.22	–
COC(=O)NC1=NCC(c2cc(Br)ccc2Br)N1C (centres undefined)	2.77	–
CC(C)c1ccc(OCC(OC(=S)n2ccnc2)C(C)(C)C)cc1 (centres undefined)	5.21	–
CCCCCCC(=O)O	2.42	–
C[C@]12CCC(=O)C=C1CC[C@@H]1[C@@H]2CC[C@@]2(C)[C@H]1CC[C@]2(O)C(=O)CO	3.08	–
Cc1ccc(C(=O)CCN2CCCCC2)c(C)c1	3.71	–
CNC=Nc1ccc(C)cc1C	2.92	–
O=[N+]([O-])c1cccc(S(=O)(=O)[O-])c1.[Na+]	-2.61	–
CCCCCCCOC(=O)c1cc(=O)[nH]c(=O)[nH]1	2.15	–
O=C1N[C@@H](Cc2ccccc2)C(=O)N[C@H]1Cc1ccccc1	1.59	–
OC[C@H]1NC[C@H](O)[C@@H](O)[C@@H]1O	-1.8	–
COC(=O)n1cc(CC(NC(=O)CC2NC(=O)C3C4CCC(CC4)N3C2=O)C(=O)NC(Cc2ccccc2)C(=O)N(C)Cc2ccccc2)c2ccccc21 (centres undefined)	4.05	–
NC1C2CCC1c1cccc(C(F)(F)F)c1C2 (centres undefined)	3.65	–
N#Cc1ccccn1	0.45	–
CCOC(=O)n1c(NC(=O)OC)nc2cc(C(=O)c3ccccc3)ccc21	2.93	–
Cc1cccc(C(N)=O)c1O	2.12	–
CCOC(=O)c1cc(=O)[nH]c(=O)[nH]1	0.68	–
Oc1cc(Cl)c(Cl)c(Cl)c1O	3.71	–
Nc1nc(=O)c2[nH]c(N)c(Cc3cccs3)c2[nH]1	1.01	–
CC(C)(C)C(COc1ccc(C#N)cc1)OC(=O)n1ccnc1 (centres undefined)	3.15	–
